In patent publication US20240043456A1 (Unity Biotechnology, Inc., priority 2020, published 2024):
One block for each compound: values may come before it.

Assays:
[1] = Chemical stability of free acid and salts during salt preparation; type: physicochemical
[2] = 12-month stability test, HPLC; type: physicochemical; parameters: HPLC result, RRT 1.09: unit not given beside the values; details: for HPLC result, RRT 0.86 / HPLC result, RRT 0.94 / HPLC result, RRT 1 / HPLC result, RRT 1.05 / HPLC result, RRT 1.09 / HPLC result, RRT 1.15 / HPLC result, RRT 1.27 / HPLC result, RRT 1.29 / HPLC result, RRT 1.65: 2-8° C.

stability of the salt [1]: unstable
Compound: Nc1cc(Cl)nc(C(=O)[O-])c1Cl.[K+] [potassium salt]

Compound: (R)-5-(4-chlorophenyl)-1-isopropyl-2-methyl-4-(3-(4-(4-((4-((1-(phenylthio)-4-(4-((phosphonooxy)methyl)piperidin-1-yl)butan-2-yl)amino)-3-((trifluoromethyl)sulfonyl)phenyl)sulfonamido)phenyl)piperazin-1-yl)phenyl)-1H-pyrrole-3-carboxylic acid meglumine salt
HPLC result, RRT 0.86 ([2]; 1 month): 0.05 | HPLC result, RRT 0.94 ([2]; 1 month): 0.07 | HPLC result, RRT 1 ([2]; 1 month): 99.4 | HPLC result, RRT 1.05 ([2]; 1 month): <0.05 | HPLC result, RRT 1.09 ([2]; 1 month): 0.07 | HPLC result, RRT 1.15 ([2]; 1 month): <0.05 | HPLC result, RRT 1.27 ([2]; 1 month): <0.05 | HPLC result, RRT 1.29 ([2]; 1 month): 0.38 | HPLC result, RRT 0.86 ([2]; 2 months): 0.05 | HPLC result, RRT 0.94 ([2]; 2 months): 0.07 | HPLC result, RRT 1 ([2]; 2 months): 99.4 | HPLC result, RRT 1.05 ([2]; 2 months): <0.05 | HPLC result, RRT 1.09 ([2]; 2 months): 0.08 | HPLC result, RRT 1.15 ([2]; 2 months): <0.05 | HPLC result, RRT 1.27 ([2]; 2 months): <0.05 | HPLC result, RRT 1.29 ([2]; 2 months): 0.40 | HPLC result, RRT 0.86 ([2]; 2 weeks): <0.05 | HPLC result, RRT 0.94 ([2]; 2 weeks): 0.07 | HPLC result, RRT 1 ([2]; 2 weeks): 99.4 | HPLC result, RRT 1.05 ([2]; 2 weeks): <0.05 | HPLC result, RRT 1.09 ([2]; 2 weeks): 0.07 | HPLC result, RRT 1.15 ([2]; 2 weeks): <0.05 | HPLC result, RRT 1.27 ([2]; 2 weeks): <0.05 | HPLC result, RRT 1.29 ([2]; 2 weeks): 0.38 | HPLC result, RRT 1.65 ([2]; 2 weeks): <0.05 | HPLC result, RRT 0.86 ([2]; 3 months): 0.09 | HPLC result, RRT 0.94 ([2]; 3 months): <0.05 | HPLC result, RRT 1 ([2]; 3 months): 99.5 | HPLC result, RRT 1.05 ([2]; 3 months): <0.05 | HPLC result, RRT 1.09 ([2]; 3 months): 0.08 | HPLC result, RRT 1.15 ([2]; 3 months): <0.05 | HPLC result, RRT 1.27 ([2]; 3 months): <0.05 | HPLC result, RRT 1.29 ([2]; 3 months): 0.36 | HPLC result, RRT 1.65 ([2]; 3 months): <0.05 | HPLC result, RRT 0.86 ([2]; 6 months): 0.05 | HPLC result, RRT 0.94 ([2]; 6 months): 0.06 | HPLC result, RRT 1 ([2]; 6 months): 99.3 | HPLC result, RRT 1.05 ([2]; 6 months): 0.05 | HPLC result, RRT 1.09 ([2]; 6 months): 0.06 | HPLC result, RRT 1.15 ([2]; 6 months): <0.05 | HPLC result, RRT 1.27 ([2]; 6 months): <0.05 | HPLC result, RRT 1.29 ([2]; 6 months): 0.44 | HPLC result, RRT 1.65 ([2]; 6 months): <0.05 | HPLC result, RRT 0.86 ([2]; 9 months): 0.08 | HPLC result, RRT 0.94 ([2]; 9 months): 0.06 | HPLC result, RRT 1 ([2]; 9 months): 99.2 | HPLC result, RRT 1.05 ([2]; 9 months): 0.07 | HPLC result, RRT 1.09 ([2]; 9 months): 0.09 | HPLC result, RRT 1.15 ([2]; 9 months): <0.05 | HPLC result, RRT 1.27 ([2]; 9 months): 0.1 | HPLC result, RRT 1.29 ([2]; 9 months): 0.41 | HPLC result, RRT 1.65 ([2]; 9 months): <0.05 | HPLC result, RRT 0.86 ([2]; 12 months): 0.08 | HPLC result, RRT 0.94 ([2]; 12 months): 0.06 | HPLC result, RRT 1 ([2]; 12 months): 99.4 | HPLC result, RRT 1.05 ([2]; 12 months): <0.05 | HPLC result, RRT 1.09 ([2]; 12 months): <0.05 | HPLC result, RRT 1.15 ([2]; 12 months): 0.07 | HPLC result, RRT 1.27 ([2]; 12 months): 0.09 | HPLC result, RRT 1.29 ([2]; 12 months): 0.14 | HPLC result, RRT 1.65 ([2]; 12 months): 0.18 | HPLC result, RRT 0.86 ([2]; T0): 0.06 | HPLC result, RRT 0.94 ([2]; T0): 0.07 | HPLC result, RRT 1 ([2]; T0): 99.6 | HPLC result, RRT 1.05 ([2]; T0): <0.05 | HPLC result, RRT 1.09 ([2]; T0): 0.06 | HPLC result, RRT 1.15 ([2]; T0): <0.05 | HPLC result, RRT 1.27 ([2]; T0): <0.05 | HPLC result, RRT 1.29 ([2]; T0): 0.22 | HPLC result, RRT 1.65 ([2]; T0): <0.05 | change in purity over test period (FIG. 20) ([2]; 12 month test period): little to no change | chemical stability ([1]; under experimental conditions): chemically stable
